Assay results from patent publication US10493164B2, “Method for preventing and treating adhesions” (Joint Stock Company “Pharmasyntez”, priority 2011, dated 2019).

System: Adhesions in the peritoneal cavity
Experiment: Adhesions in the peritoneal cavity generated in rats by caecum injury and abdominal wall scarification
Format: in vivo, Wistar rats
Method: (§1) Adhesions in the peritoneal cavity were generated in laboratory animals (Wistar rats, 9 months of age, weight of 220-250 g) by injuring the surface of caecum and abdominal wall scarification in the injured area. The study was conducted in compliance with the principles of the European Convention for the Protection of Vertebrate Animals used for Experimental and other Scientific Purposes (Strasbourg, France, 1986), as well as with regulations for humane treatment specified in Guidance for Proper Conduct of Animal Experiments (Attachment to Order No. 755 of the Ministry of Health of the USSR, dated Aug. 12, 1977).
Ten laboratory animals were used in this study. They were divided into 2 groups: the experimental group and the control group.
The calculation was based on the minimum volume of solution required to moisten the peritoneal surface (diZerega G. S. Peritoneum, peritoneal healing and adhesion formation/G. S. diZerega//in: Perotoneal surgery: Ed. G. S. diZerega.—Berlin—Heidelberg—New York: Springer, 2006.—P. 3-38), and the concentration was calculated on the basis of IC50 in the boundary layer of cells. The control animals received a corresponding amount of normal saline solution.
On Day 28 after the abdominal cavity being injured, all animals were autopsied for the examination of abdominal cavity organs and the assessment of the severity and incidence of adhesions, deformation of abdominal cavity organs and distribution of different types of adhesions. The severity of adhesions was scored according to micro- and macroscopic adhesion scales [Micronized purified flavonoid fraction may prevent formation of intraperitoneal adhesions in rats//H. G. Yilmaz, I. H. Tacyildiz, C. Keles et al.//Fertil. Steril.—2005.—Vol. 84, Suppl. 2.—P 1083-1087].
The visceral peritoneum and abdominal organs involved in adhesion formation were examined histologically after fixation in FineFIX solution (Milestone), paraffin filling, staining with hematoxylin-eosin and van Gieson's staining.
as §1, with “surface of the caecum and” for “surface of caecum and”
Thirty laboratory animals were used in this study. They were divided into 2 groups: the experimental group and the control group. […]

Compound	signs of adhesions in histological section of intestinal wall (van Gieson's staining) (Example 5, FIG. 1, abdominal trauma zone and area of postoperative suture)	cases of intestinal wall adhesions (Example 5: 3 ml sterile solution 10 μg/ml injected once before celiorrhaphy, autopsy Day 28)	severity of adhesion formation (score, micro- and macroscopic adhesion scales) (Example 5: 3 ml, 10 μg/ml, once, Day 28, control scored 7, p<0.01)	signs of adhesions in histological section of intestinal wall (van Gieson's staining) (Example 6, FIG. 4, 30 days after modelling)
C[S+]([O-])c1ccc(-c2nc(-c3ccc(F)cc3)c(-c3ccncc3)[nH]2)cc1 (stereo not shown) [SB203580, 4-(4-fluorophenyl)-2-(4-methylsulfinylphenyl)-5-(4-pyridyl)-1H-imidazole]	No signs of adhesions	No cases of intestinal wall adhesions	2	–
Conjugates of Polyvinylimidazole and 4-(4-Fluorinephenyl)-2-(4-Methylsulphinylphenyl)-5-(4-Pyridyl)-1H-Imidazole [Example 3]	–	–	–	No signs of adhesions
